Values joined by “and” are separate entries in the source; they are usually repeats but may differ in a detail not shown here. Identical values can stand only once.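 Interpolation was linear, between the two tested concentrations surrounding the appropriate level; five concentrations were tested over 48 hours in 96-well plates. TGI denotes the concentration required for complete inhibition of growth.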
How the values were obtained:
Assay in all cases: NCI-60 cell line screen, 48 h
DLD-1 colon = system: DLD-1 colon
KM20L2 colon = system: KM20L2 colon
M19-MEL melanoma = system: M19-MEL melanoma
XF 498 CNS = system: XF 498 CNS
DMS 114 small cell lung = system: DMS 114 small cell lung
HOP-18 NSCLC = system: HOP-18 NSCLC

Row | SMILES | TGI (DLD-1 colon) | TGI (KM20L2 colon) | TGI (M19-MEL melanoma) | TGI (XF 498 CNS) | TGI (DMS 114 small cell lung) | TGI (HOP-18 NSCLC)
1 | Cc1nc2c(n1Cc1ccc(Cl)cc1)C(=O)c1ccccc1C2=O | > 75 µM | > 75 µM | > 75 µM | > 75 µM |  | 
2 | CC(=O)O[C@]12CCCCCCC1C1(O)C(O)CCC[C@H]12 (stereo partly drawn) |  | > 100 µM | > 100 µM | > 100 µM | > 100 µM | > 100 µM
3 | O=S1(=O)NNC(=NCc2ccc(F)cc2)c2ccccc21 | > 100 µM | > 100 µM | > 100 µM | > 100 µM |  | 
4 | Brc1ccc(N2C[N+](c3ccc(Br)cc3)=NC(c3ccccc3)=N2)cc1 | 25.2 µM and > 100 µM | 33.8 µM and > 100 µM | 29.7 µM and > 100 µM | 35.5 µM and > 100 µM | 34.7 µM and 97.8 µM | 28 µM and > 100 µM
5 | NC1=NS(=O)(=O)N=C(N)C1=Cc1ccc([N+](=O)[O-])o1 | 33.7 µM | 31.3 µM | 30 µM | 32.7 µM | 31.9 µM | 31.8 µM
6 | O=C(c1cccs1)N(C(=S)N1CCN(c2ccccc2)CC1)c1ccccc1 | > 100 µM | > 100 µM | > 100 µM |  | > 100 µM | > 100 µM
7 | CCCCN(CCCC)C(=NCc1ccccc1)NC#N | 47 µM | 52.2 µM | 36.1 µM |  |  | > 100 µM
8 | Cc1ccc2c(c1)c(=O)c1c(NCCN(C)C)ccc3nnn2c31 | 20 µM | 16 µM | 20.8 µM |  | 18.5 µM | 50 µM
9 | c1ccc(C2=NN3CN(N2)c2ccccc2OCCCOc2ccccc23)cc1 |  | > 100 µM | > 100 µM | > 100 µM | > 100 µM | 

— PubChem BioAssay (NCI)
